The test system of test [1] is Puccinia recondita f. Sp. Tritici. The test can be described thus: Fungicidal activity against Puccinia recondita f. sp. tritici / wheat / leaf disc preventative (brown rust). The class given is in vivo. The note with it: foliar, 200 ppm in the applied formulation, wheat leaf segments, preventative, compared to untreated control leaf disks, read-out: disease control. The protocol:
Leaf disks or leaf segments of various plant species are cut from plants grown in a greenhouse. The cut leaf disks or segments are placed in multiwell plates (24-well format) onto water agar. The leaf disks are sprayed with a test solution before (preventative) or after (curative) inoculation. Compounds to be tested are prepared as DMSO solutions (max. 10 mg/ml) which are diluted to the appropriate concentration with 0.025% Tween20 just before spraying. The inoculated leaf disks or segments are incubated under defined conditions (temperature, relative humidity, light, etc.) according to the respective test system. A single evaluation of disease level is carried out 3 to 14 days after inoculation, depending on the pathosystem. Percent disease control relative to the untreated check leaf disks or segments is then calculated.
Fungicidal Activity Against Puccinia recondita f. Sp. Tritici/Wheat/Leaf Disc Preventative (Brown Rust)
Wheat leaf segments cv. Kanzler were placed on agar in multiwell plates (24-well format) and sprayed with the formulated test compound diluted in water. The leaf disks were inoculated with a spore suspension of the fungus 1 day after application. The inoculated leaf segments were incubated at 19° C. and 75% relative humidity (rh) under a light regime of 12 hours light/12 hours darkness in a climate cabinet and the activity of a compound was assessed as percent disease control compared to untreated when an appropriate level of disease damage appears in untreated check leaf segments (7 to 9 days after application).
The following compounds at 200 ppm in the applied formulation give at least 80% disease control in this test when compared to untreated control leaf disks under the same conditions, which show extensive disease development.

In test [2] the test system is Glomerella lagenarium (Colletotrichum lagenarium). The test can be described thus: Fungicidal activity against Glomerella lagenarium (Colletotrichum lagenarium) liquid culture / cucumber / preventative (anthracnose). Format: cell-based. The note with it: Colletotrichum orbiculare; 20 ppm in the applied formulation; liquid culture (PDB), growth inhibition measured photometrically after 3 to 4 days; compared to untreated control; read-out: disease control. Put shortly:
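Photometric read-out of fungal growth after 2–7 days, expressed as percent antifungal activity versus untreated check. Cryo-stored conidia in PDB; compound at 20 ppm; dark, 24 °C, 96% RH.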

Bounds are passed on as bounds.

As to `CON(C(=O)C1=CCCC1)C(C)c1ccc(-c2noc(C(F)(F)F)n2)cc1` (stereo not drawn) [Compound 1.258, N-methoxy-N-[1-[4-[5-(trifluoromethyl)-1,2,4-oxadiazol-3-yl]phenyl]ethyl]-cyclopentene-1-carboxamide], the pest or weed control at 200 ppm in test [1] is at least 80%. Besides, in test [2], the inhibition of growth at 20 ppm was at least 80%.

For `CCC(COC)C(=O)N(Cc1ccc(-c2noc(C(F)(F)F)n2)cc1)CC1CCCO1` (stereo not drawn) [Compound 1.440, 2-(methoxymethyl)-N-(tetrahydrofuran-2-ylmethyl)-N-[[4-[5-(trifluoromethyl)-1,2,4-oxadiazol-3-yl]phenyl]methyl]-butanamide], in test [1], the pest or weed control at 200 ppm is at least 80%. The inhibition of growth at 20 ppm in test [2] is at least 80%.

Turning to `CC(C)CC(=O)N(Cc1ccc(-c2noc(C(F)(F)F)n2)cc1)CC1CCCO1` (stereo not drawn) [Compound 1.423, 3-methyl-N-(tetrahydrofuran-2-ylmethyl)-N-[[4-[5-(trifluoromethyl)-1,2,4-oxadiazol-3-yl]phenyl]methyl]-butanamide], the pest or weed control at 200 ppm in test [1] is at least 80%. Also, in test [2], the inhibition of growth at 20 ppm is at least 80%.

With `C=CC(=O)N(Cc1ccc(-c2noc(C(F)(F)F)n2)cc1)CC1CCCO1` (stereo not drawn) [Compound 1.430, N-(tetrahydrofuran-2-ylmethyl)-N-[[4-[5-(trifluoromethyl)-1,2,4-oxadiazol-3-yl]phenyl]methyl]-prop-2-enamide], in test [1], the pest or weed control at 200 ppm was at least 80%. The inhibition of growth at 20 ppm in test [2] was at least 80%.

As to `COc1ccc(C2(C(=O)N(Cc3ccc(-c4noc(C(F)(F)F)n4)cc3)C3CC3)CC2)cc1` [Compound 1.143, N-cyclopropyl-1-(4-methoxyphenyl)-N-[[4-[5-(trifluoromethyl)-1,2,4-oxadiazol-3-yl]phenyl]methyl]-cyclopropane-carboxamide], the pest or weed control at 200 ppm in test [1] was at least 80%.

For the compound `O=C(C1CC1(F)F)N(Cc1ccc(-c2noc(C(F)(F)F)n2)cc1)CC1CCCO1` (stereo not drawn) [Compound 1.414, 2,2-difluoro-N-(tetrahydrofuran-2-ylmethyl)-N-[[4-[5-(trifluoromethyl)-1,2,4-oxadiazol-3-yl]phenyl]methyl]-cyclopropane-carboxamide], in test [1], the pest or weed control at 200 ppm was at least 80%. In addition, in test [2], the inhibition of growth at 20 ppm was at least 80%.

In the case of `CCC(C)N(Cc1ccc(-c2noc(C(F)(F)F)n2)cc1)C(=O)c1ccoc1` (stereo not drawn) [Compound 1.405, N-sec-butyl-N-[[4-[5-(trifluoromethyl)-1,2,4-oxadiazol-3-yl]phenyl]methyl]-furan-3-carboxamide], the pest or weed control at 200 ppm in test [1] is at least 80%. Further, in test [2], the inhibition of growth at 20 ppm is at least 80%.

`C#CCN(Cc1ccc(-c2noc(C(F)(F)F)n2)cc1)C(=O)Cc1ccccc1` [Compound 1.186, 2-phenyl-N-prop-2-ynyl-N-[[4-[5-(trifluoromethyl)-1,2,4-oxadiazol-3-yl]phenyl]methyl]-acetamide]: the pest or weed control at 200 ppm in test [1] is at least 80%.

As for `C#CCOC(C(=O)N(Cc1ccc(-c2noc(C(F)(F)F)n2)cc1)C1CC1)c1ccc(Cl)cc1` (stereo not drawn) [Compound 1.141, 2-(4-chlorophenyl)-N-cyclopropyl-2-prop-2-ynoxy-N-[[4-[5-(trifluoromethyl)-1,2,4-oxadiazol-3-yl]phenyl]methyl]-acetamide], the pest or weed control at 200 ppm in test [1] is at least 80%.

Consider `O=C(Cc1ccc(C(F)(F)F)cc1)N(Cc1ccc(-c2noc(C(F)(F)F)n2)cc1)C1CC1` [Compound 1.140, N-cyclopropyl-N-[[4-[5-(trifluoromethyl)-1,2,4-oxadiazol-3-yl]phenyl]methyl]-2-[4-(trifluoromethyl)-phenyl]acetamide], for which the pest or weed control at 200 ppm in test [1] is at least 80%.

Consider `CON(Cc1ccc(-c2noc(C(F)(F)F)n2)cc1)C(=O)C1C(C=C(Cl)Cl)C1(C)C` (stereo not drawn) [Compound 1.62, 3-(2,2-dichlorovinyl)-N-methoxy-2,2-dimethyl-N-[[4-[5-(trifluoromethyl)-1,2,4-oxadiazol-3-yl]phenyl]methyl]-cyclopropane-carboxamide], for which the pest or weed control at 200 ppm in test [1] is at least 80%.

Consider `O=CNC1(C(=O)N(Cc2ccc(-c3noc(C(F)(F)F)n3)cc2)CC2CCCO2)CC1` (stereo not drawn) [Compound 1.441, 1-formamido-N-(tetrahydrofuran-2-ylmethyl)-N-[[4-[5-(trifluoromethyl)-1,2,4-oxadiazol-3-yl]phenyl]methyl]-cyclopropane-carboxamide], for which the pest or weed control at 200 ppm in test [1] was at least 80%.

Consider `CC(=O)NCC(=O)N(Cc1ccc(-c2noc(C(F)(F)F)n2)cc1)OCc1ccc(Cl)cc1` [Compound 1.552, 2-ace tamido-N-[(4-chlorophenyl)-methoxy]-N-[[4-[5-(trifluoromethyl)-1,2,4-oxadiazol-3-yl]phenyl]methyl]-acetamide], for which, in test [1], the pest or weed control at 200 ppm was at least 80%.

As for `O=C(Cc1ccc(Cl)cc1)N(Cc1ccc(-c2noc(C(F)(F)F)n2)cc1)CC1CC1` [Compound 1.234, 2-(4-chlorophenyl)-N-(cyclopropylmethyl)-N-[[4-[5-(trifluoromethyl)-1,2,4-oxadiazol-3-yl]phenyl]methyl]-acetamide], the pest or weed control at 200 ppm in test [1] was at least 80%.

Take `C#CCOC(=O)NC(C(=O)N(CC#C)Cc1ccc(-c2noc(C(F)(F)F)n2)cc1)C(C)C` (stereo not drawn) [Compound 1.198, prop-2-ynyl N-[2-methyl-1-[prop-2-ynyl-[[4-[5-(trifluoromethyl)-1,2,4-oxadiazol-3-yl]phenyl]methyl]-carbamoyl]propyl]-carbamate]: the pest or weed control at 200 ppm in test [1] was at least 80%.

With `COCCN(Cc1ccc(-c2noc(C(F)(F)F)n2)cc1)C(=O)C1(NC=O)CC1` [Compound 1.354, 1-formamido-N-(2-methoxyethyl)-N-[[4-[5-(trifluoromethyl)-1,2,4-oxadiazol-3-yl]phenyl]methyl]-cyclopropane-carboxamide], the pest or weed control at 200 ppm in test [1] is at least 80%.

In the case of `C#CCN(Cc1ccc(-c2noc(C(F)(F)F)n2)cc1)C(=O)Cc1ccccc1Cl` [Compound 1.163, 2-(2-chlorophenyl)-N-prop-2-ynyl-N-[[4-[5-(trifluoromethyl)-1,2,4-oxadiazol-3-yl]phenyl]methyl]-acetamide], the inhibition of growth at 20 ppm in test [2] was at least 80%.

On to `CCCCON(Cc1ccc(-c2noc(C(F)(F)F)n2)cc1)C(=O)CC` [Compound 1.588, N-butoxy-N-[[4-[5-(trifluoromethyl)-1,2,4-oxadiazol-3-yl]phenyl]methyl]-propanamide], for which, in test [2], the inhibition of growth at 20 ppm was at least 80%.

Turning to `CCCCON(Cc1ccc(-c2noc(C(F)(F)F)n2)cc1)C(=O)C1CCC1` [Compound 1.638, N-butoxy-N-[[4-[5-(trifluoromethyl)-1,2,4-oxadiazol-3-yl]phenyl]methyl]-cyclobutane-carboxamide], the inhibition of growth at 20 ppm in test [2] is at least 80%.

For the compound `CCC(=O)N(Cc1ccc(-c2noc(C(F)(F)F)n2)cc1)OCC=C(Cl)Cl` [Compound 1.534, N-(3,3-dichloroallyloxy)-N-[[4-[5-(trifluoromethyl)-1,2,4-oxadiazol-3-yl]phenyl]methyl]-propanamide], in test [2], the inhibition of growth at 20 ppm is at least 80%.

Turning to `O=C(C1CC1F)N(Cc1ccc(-c2noc(C(F)(F)F)n2)cc1)OCc1ccc(Cl)cc1` (stereo not drawn) [Compound 1.558, N-[(4-chlorophenyl)-methoxy]-2-fluoro-N-[[4-[5-(trifluoromethyl)-1,2,4-oxadiazol-3-yl]phenyl]methyl]-cyclopropane-carboxamide], in test [2], the inhibition of growth at 20 ppm was at least 80%.

In the case of `CCC(C)C(=O)N(Cc1ccc(-c2noc(C(F)(F)F)n2)cc1)OCC=C(Cl)Cl` (stereo not drawn) [Compound 1.542, N-(3,3-dichloroallyloxy)-2-methyl-N-[[4-[5-(trifluoromethyl)-1,2,4-oxadiazol-3-yl]phenyl]methyl]-butanamide], the inhibition of growth at 20 ppm in test [2] is at least 80%.

`CON(C(=O)C1CCCC1)C(C)c1ccc(-c2noc(C(F)(F)F)n2)cc1` (stereo not drawn) [Compound 1.257]: the inhibition of growth at 20 ppm in test [2] is at least 80%.

On to `CCCON(Cc1ccc(-c2noc(C(F)(F)F)n2)cc1)C(=O)C(CC)COC` (stereo not drawn) [Compound 1.311, 2-(methoxymethyl)-N-propoxy-N-[[4-[5-(trifluoromethyl)-1,2,4-oxadiazol-3-yl]phenyl]methyl]-butanamide], for which, in test [2], the inhibition of growth at 20 ppm was at least 80%.

For the compound `O=C(C1OCCO1)N(Cc1ccc(-c2noc(C(F)(F)F)n2)cc1)OCc1ccc(Cl)cc1` [Compound 1.560, N-[(4-chlorophenyl)-methoxy]-N-[[4-[5-(trifluoromethyl)-1,2,4-oxadiazol-3-yl]phenyl]methyl]-1,3-dioxolane-2-carboxamide], the inhibition of growth at 20 ppm in test [2] was at least 80%.

Take `CC#CC(=O)N(Cc1ccc(-c2noc(C(F)(F)F)n2)cc1)OCCC` [Compound 1.282, N-propoxy-N-[[4-[5-(trifluoromethyl)-1,2,4-oxadiazol-3-yl]phenyl]methyl]but-2-ynamide]: in test [2], the inhibition of growth at 20 ppm is at least 80%.

Turning to `COc1ccc(C2(C(=O)N(Cc3ccc(-c4noc(C(F)(F)F)n4)cc3)OC)CC2)cc1` [Compound 1.74, N-methoxy-1-(4-methoxyphenyl)-N-[[4-[5-(trifluoromethyl)-1,2,4-oxadiazol-3-yl]phenyl]methyl]-cyclopropane-carboxamide], the inhibition of growth at 20 ppm in test [2] is at least 80%.
